Test results as given in patent publication US12098154B2, “Inhibitors of cyclin-dependent kinases” (Dana-Farber Cancer Institute, Inc., priority 2015, dated 2024).
Like-named read-outs stand apart in the source and are kept apart here.

What was measured:
CDK2/CycA = CDK2/CycA (Homo sapiens, UniProt P24941); assay: CDK2/CycA inhibition (Tables A1, A2); assay type: biochemical
CDK9/CycT = CDK9/CycT (Homo sapiens, UniProt P50750); assay: CDK9/CycT inhibition (Tables A1, A2); assay type: biochemical
CDK7/CycH = CDK7/CycH (Homo sapiens, UniProt P50613); assay: CDK7/CycH inhibition (Tables A1, A2); assay type: biochemical
Jurkat cells = assay: Jurkat proliferation assay (CellTiter-Glo); assay type: cell-based; details: for IC50: Homo sapiens, Jurkat
Procedure: (§1) Jurkat cells were seeded at a density of 25,000 cells/well in 96-well plates. Cells were then treated with the indicated compounds in a 10-pt dose escalation format from 1 nM to 10 μM or DMSO control for 72 hours. After 72 hours, the cells were assayed using CellTiter-Glo Luminescent Cell Viability Assay (Promega) to determine cell viability by measuring the amount of ATP present in each sample cell population, which is an indicator of cell metabolic activity. […] All data points were performed in biological triplicate. Error bars are +/−SD.
as §1, with “hrs.” for “hours.”, “hrs,” for “hours, the”

[1] = test system: TAL1, RUNX1, and MYB mRNA transcripts; assay: Jurkat gene expression analysis (qPCR); assay type: cell-based; details: 1 μM, 6 hrs, Jurkat cells
Procedure: Jurkat cells were seeded at a density of 5 million cells/10 mL. Cells were then treated with 200 nM or 1 μM of the indicated compounds or with DMSO control for 6 hours. Total RNA was extracted from 5 million cells using the RNeasy Plus Mini Kit (Qiagen) with a gDNA eliminator mini column to remove genomic DNA. mRNA was reverse transcribed into cDNA using the SuperScript III First-Strand Synthesis Kit (Life Technologies) using an oligo-dT primer to capture polyadenylated mRNAs. Quantitative PCR (qPCR) using transcript-specific Taqman probes (Applied Biosystems) was used to assess the effect of compound treatment on the expression of the indicated mRNA transcripts. All experiments shown were performed in biological triplicate. Each individual biological sample was qPCR-amplified in technical duplicate. Error bars are +/−SD. Expression data from drug treatments were normalized to GAPDH probe.
Jurkat cells were seeded at a density of 5 million cells/10 mL. Cells were then treated with 200 nM or 1 μM of the indicated compounds or with DMSO control for 6 hrs. […] Quantitative PCR (qPCR) using transcript-specific Taqman probes (Applied Biosystems) was used to assess the effect of compound treatment on the expression of the indicated mRNA transcripts. […]

[2] = 72 h, CellTiter-Glo, read-out: IC50 on Jurkat T-ALL cell proliferation

Chain of CDK7/CycH (P50613 whole entry): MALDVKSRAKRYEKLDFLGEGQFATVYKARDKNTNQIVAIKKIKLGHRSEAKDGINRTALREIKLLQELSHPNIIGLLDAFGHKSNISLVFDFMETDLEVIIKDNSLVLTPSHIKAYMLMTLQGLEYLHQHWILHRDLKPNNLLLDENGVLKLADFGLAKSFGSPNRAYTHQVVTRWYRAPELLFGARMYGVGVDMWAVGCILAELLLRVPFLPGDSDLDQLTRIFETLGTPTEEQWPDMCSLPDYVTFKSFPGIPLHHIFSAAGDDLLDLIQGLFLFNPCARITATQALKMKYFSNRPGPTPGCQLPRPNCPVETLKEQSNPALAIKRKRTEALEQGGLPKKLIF
Chain of CDK7/CycH (P51946 whole entry partner): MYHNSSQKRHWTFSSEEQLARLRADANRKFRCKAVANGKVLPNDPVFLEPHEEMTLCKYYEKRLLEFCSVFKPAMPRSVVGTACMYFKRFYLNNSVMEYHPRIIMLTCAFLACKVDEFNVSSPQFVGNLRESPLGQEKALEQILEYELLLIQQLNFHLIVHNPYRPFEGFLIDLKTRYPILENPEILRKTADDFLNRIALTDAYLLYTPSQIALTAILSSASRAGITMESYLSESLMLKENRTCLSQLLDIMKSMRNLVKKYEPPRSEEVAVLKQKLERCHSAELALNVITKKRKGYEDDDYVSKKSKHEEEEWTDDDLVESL
Chain of CDK9/CycT (P50750 whole entry): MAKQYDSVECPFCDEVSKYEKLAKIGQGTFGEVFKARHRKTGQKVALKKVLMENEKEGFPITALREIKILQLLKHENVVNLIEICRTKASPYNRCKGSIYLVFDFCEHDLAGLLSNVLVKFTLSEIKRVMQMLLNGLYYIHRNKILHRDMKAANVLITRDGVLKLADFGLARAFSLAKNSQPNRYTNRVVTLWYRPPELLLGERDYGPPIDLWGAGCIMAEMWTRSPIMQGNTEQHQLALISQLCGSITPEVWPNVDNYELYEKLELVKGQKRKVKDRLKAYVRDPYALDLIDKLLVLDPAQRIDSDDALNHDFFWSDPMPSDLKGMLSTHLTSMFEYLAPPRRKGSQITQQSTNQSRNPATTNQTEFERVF
Chain of CDK9/CycT (O60563 whole entry partner): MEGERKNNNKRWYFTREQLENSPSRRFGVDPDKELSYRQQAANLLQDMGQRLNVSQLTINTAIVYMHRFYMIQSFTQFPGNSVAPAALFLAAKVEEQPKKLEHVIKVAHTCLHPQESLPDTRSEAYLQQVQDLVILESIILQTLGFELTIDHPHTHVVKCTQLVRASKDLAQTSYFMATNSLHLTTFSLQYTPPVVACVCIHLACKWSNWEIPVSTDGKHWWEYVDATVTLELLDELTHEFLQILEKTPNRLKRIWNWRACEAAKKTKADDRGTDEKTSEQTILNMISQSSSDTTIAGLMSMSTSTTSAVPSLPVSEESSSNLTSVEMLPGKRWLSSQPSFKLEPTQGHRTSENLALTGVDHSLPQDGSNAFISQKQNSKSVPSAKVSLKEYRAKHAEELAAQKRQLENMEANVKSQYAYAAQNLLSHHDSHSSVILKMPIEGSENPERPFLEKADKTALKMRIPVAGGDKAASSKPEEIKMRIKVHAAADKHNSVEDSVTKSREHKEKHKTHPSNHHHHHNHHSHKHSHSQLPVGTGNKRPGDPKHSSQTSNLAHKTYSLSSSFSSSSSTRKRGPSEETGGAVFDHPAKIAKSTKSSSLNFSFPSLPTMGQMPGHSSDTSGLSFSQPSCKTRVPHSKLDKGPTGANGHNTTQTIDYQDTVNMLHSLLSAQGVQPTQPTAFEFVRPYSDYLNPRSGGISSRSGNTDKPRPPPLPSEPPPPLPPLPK

| SMILES | IC50 (CDK2/CycA) | IC50 (CDK9/CycT) | IC50 (CDK7/CycH) | IC50 (Jurkat cells; read-out: Jurkat IC50) | IC50 (Jurkat cells; [2]) | Mode of inhibition of Jurkat T-ALL cell proliferation (Jurkat cells) | Downregulation of TAL1, RUNX1, MYB transcripts [1] |
| --- | --- | --- | --- | --- | --- | --- | --- |
| C=CC(=O)Nc1cccc(Nc2cc(N3CCCC(N)C3)nc3c(CC)cnn23)c1 (centres unmarked) [MFH-3-140-1, N-(3-(5-(3-aminopiperidin-1-yl)-3-ethylpyrazolo[1,5-a]pyrimidin-7-ylamino)phenyl)acrylamide] | 4190 nM | 465 nM | 356 nM | – | – | – | – |
| C=CC(=O)Nc1ccc(C(=O)Nc2cccc(Nc3nc(N4CCCCC4CCO)nc4c(CC)cnn34)c2)cc1 (centres unmarked) [SB1-E-19, 4-Acrylamido-N-(3-(8-ethyl-2-(2-(2-hydroxyethyl)piperidin-1-yl)pyrazolo[1,5-a][1,3,5]triazin-4-ylamino)phenyl)benzamide] | 295 nM | 123 nM | 383 nM | – | – | – | – |
| C=CC(=O)Nc1ccc(C(=O)Nc2cccc(Nc3cc(N[C@H]4CC[C@H](N(C)C)CC4)nc4c(C(C)C)cnn34)c2)cc1 [SB1-E-25, 4-Acrylamido-N-(3-(5-((1r,4r)-4-(dimethylamino)cyclohexylamino)-3-isopropylpyrazolo[1,5-a]pyrimidin-7-ylamino)phenyl)benzamide] | 33400 nM | 387 nM | 410 nM | – | – | – | – |
| C=CC(=O)Nc1cccc(Nc2cc(N[C@H]3CC[C@H](N(C)C)CC3)nc3c(C(C)C)cnn23)c1 [SB1-E-26, N-(3-(5-((1r,4r)-4-(Dimethylamino)cyclohexylamino)-3-isopropylpyrazolo[1,5-a]pyrimidin-7-ylamino)phenyl)acrylamide] | 939 nM | 429 nM | 1090 nM | 518 nM | > 300 nM | – | potently reduce |
| C=CC(=O)Nc1ccc(C(=O)Nc2cccc(Nc3nc(N4CCCCC4CCO)nc4c3ncn4C(C)C)c2)cc1 (centres unmarked) [THZ-4-124-1, 4-Acrylamido-N-(3-((2-(2-(2-hydroxyethyl)piperidin-1-yl)-9-isopropyl-9H-purin-6-yl)amino)phenyl)benzamide] | 976 nM | 373 nM | 122 nM | 117 nM | – | – | – |
| CCc1cnn2c(Nc3cccc(NC(=O)c4ccc(NC(=O)/C=C/CN(C)C)cc4)c3)cc(N3CCCC(N)C3)nc12 (centres unmarked) [THZ-4-128-1, (E)-N-(3-((5-(3-Aminopiperidin-1-yl)-3-ethylpyrazolo[1,5-a]pyrimidin-7-yl)amino)phenyl)-4-(4-(dimethylamino)but-2-enamido)benzamide] | 17100 nM | 73.4 nM | 46.8 nM | 1040 nM | – | – | – |
| C=CC(=O)Nc1cccc(Nc2nc(N3CCCCC3CCO)nc3c2ncn3C(C)C)c1 (centres unmarked) [THZ-4-134-1, N-(3-((2-(2-(2-Hydroxyethyl)piperidin-1-yl)-9-isopropyl-9H-purin-6-yl)amino)phenyl)acrylamide] | 163 nM | 379 nM | 1180 nM | 522 nM | – | – | – |
| C=CC(=O)Nc1ccc(C(=O)N2CCCC(Nc3cc(N4CCCC(N)C4)nc4c(CC)cnn34)C2)cc1 (centres unmarked) [THZ-4-141-1] | > 1000 nM | 3570 nM | 3600 nM | – | – | – | – |
| C=CC(=O)Nc1ccc(C(=O)N2CCCC(Nc3cc(NC4CCC(N(C)C)CC4)nc4c(CC)cnn34)C2)cc1 (centres unmarked) [THZ-4-148-1] | 7050 nM | 1710 nM | > 10000 nM | – | – | – | – |
| CC(C)n1cnc2c(Nc3cccc(NC(=O)/C=C/CN(C)C)c3)nc(N[C@H]3CC[C@H](N(C)C)CC3)nc21 [THZ-5-18-1] | – | 1530 nM | 121 nM | 1340 nM | – | – | – |
| C=CC(=O)Nc1ccc(C(=O)Nc2cccc(Nc3nc(N[C@H]4CC[C@H](N(C)C)CC4)nc4c3ncn4C(C)C)c2)cc1 [THZ-5-38-1, 4-Acrylamido-N-(3-((2-((trans-4-(dimethylamino)cyclohexyl)amino)-9-isopropyl-9H-purin-6-yl)amino)phenyl)benzamide] | 563 nM | 220 nM | 25.9 nM | – | – | – | – |

More lines, in order of falling IC50 (CDK9/CycT), values ahead:

| IC50 (CDK2/CycA) | IC50 (CDK9/CycT) | IC50 (CDK7/CycH) | IC50 (Jurkat cells; read-out: Jurkat IC50) | IC50 (Jurkat cells; [2]) | SMILES | Mode of inhibition of Jurkat T-ALL cell proliferation (Jurkat cells) | Downregulation of TAL1, RUNX1, MYB transcripts [1] |
| --- | --- | --- | --- | --- | --- | --- | --- |
| > 1000 nM | 2290 nM | 4430 nM | – | – | C=CC(=O)Nc1ccc(C(=O)N2CCCC(Nc3nc(N4CCCCC4CCO)nc4c3ncn4C(C)C)C2)cc1 (centres unmarked) [THZ-4-149-1] | – | – |
| – | 519 nM | 11.5 nM | 1960 nM | – | CC(C)n1cnc2c(Nc3cccc(NC(=O)c4ccc(NC(=O)/C=C/CN(C)C)cc4)c3)nc(N3CCCC(N)C3)nc21 (centres unmarked) [THZ-4-119-1, (E)-N-(3-((2-(3-Aminopiperidin-1-yl)-9-isopropyl-9H-purin-6-yl)amino)phenyl)-4-(4-(dimethylamino)but-2-enamido)benzamide] | – | – |
| – | 445 nM | 9.43 nM | 4030 nM | – | CC(C)n1cnc2c(Nc3cccc(NC(=O)c4ccc(NC(=O)/C=C/CN(C)C)cc4)c3)nc(N[C@H]3CC[C@H](N(C)C)CC3)nc21 [THZ-3-49-1, 4-((E)-4-(Dimethylamino)but-2-enamido)-N-(3-((2-(((1r,4r)-4-(dimethylamino)cyclohexyl)amino)-9-isopropyl-9H-purin-6-yl)amino)phenyl)benzamide] | – | – |
| 1220 nM | 226 nM | 1210 nM | 318 nM | > 300 nM | C=CC(=O)Nc1cccc(Nc2cc(N[C@H]3CC[C@H](N(C)C)CC3)nc3c(CC)cnn23)c1 [SB1-E-21, N-(3-(5-((1r,4r)-4-(Dimethylamino)cyclohexylamino)-3-ethylpyrazolo[1,5-a]pyrimidin-7-ylamino)phenyl)acrylamide] | – | potently reduce |
| 1260 nM | 140 nM | 774 nM | – | – | C=CC(=O)Nc1ccc(C(=O)Nc2cccc(Nc3cc(N4CCCCC4CCO)nc4c(CC)cnn34)c2)cc1 (centres unmarked) [SB1-E-24, 4-Acrylamido-N-(3-(3-ethyl-5-(2-(2-hydroxyethyl)piperidin-1-yl)pyrazolo[1,5-a]pyrimidin-7-ylamino)phenyl)benzamide] | – | – |
| 30.3 nM | 116 nM | 255 nM | – | – | C=CC(=O)NCc1cccc(Nc2nc(N[C@H]3CC[C@H](N(C)C)CC3)nc3c2ncn3C(C)C)c1 [SB1-E-16, N-(3-(2-((1r,4r)-4-(Dimethylamino)cyclohexylamino)-9-isopropyl-9H-purin-6-ylamino)benzyl)acrylamide] | – | – |
| 28300 nM | 88.9 nM | 246 nM | – | – | C=CC(=O)Nc1ccc(C(=O)Nc2cccc(Nc3cc(N[C@H]4CC[C@H](N(C)C)CC4)nc4c(CC)cnn34)c2)cc1 [SB1-E-22, 4-Acrylamido-N-(3-(5-((1r,4r)-4-(dimethylamino)cyclohexylamino)-3-ethylpyrazolo[1,5-a]pyrimidin-7-ylamino)phenyl)benzamide] | – | – |
| > 1000 nM | 68.7 nM | 842 nM | – | – | C=CC(=O)NC1CCCC(Nc2nc(N[C@H]3CC[C@H](N(C)C)CC3)nc3c(CC)cnn23)C1 (some centres unmarked) [MFH-2-78-1, N-(3-((2-(((1r,4r)-4-(dimethylamino)cyclohexyl)amino)-8-ethylpyrazolo[1,5-a][1,3,5]triazin-4-yl)amino)cyclohexyl)acrylamide] | – | – |
| 1480 nM | 58.9 nM | 763 nM | – | – | C=CC(=O)NC1CCCC(Nc2nc(N[C@H]3CC[C@H](N(C)C)CC3)nc3c2ncn3C(C)C)C1 (some centres unmarked) [SB1-E-15, N-(3-(2-((1r,4r)-4-(Dimethylamino)cyclohexylamino)-9-isopropyl-9H-purin-6-ylamino)cyclohexyl)acrylamide] | – | – |
| 15 nM | 41.8 nM | 461 nM | 19.2 nM | – | C=CC(=O)Nc1cccc(Nc2nc(N3CCCCC3CCO)nc3c(CC)cnn23)c1 (centres unmarked) [SB1-E-18, N-(3-(8-Ethyl-2-(2-(2-hydroxyethyl)piperidin-1-yl)pyrazolo[1,5-a][1,3,5]triazin-4-ylamino)phenyl)acrylamide] | irreversiably inhibit | – |
